Test results reported in publication PMC5011342, “A high throughput drug screening assay to identify compounds that promote oligodendrocyte differentiation using acutely dissociated and purified oligodendrocyte precursor cells” (BMC Research Notes, 2016).
Like-named read-outs stand apart in the source and are kept apart here.

Tests used:
[1] = system: acutely dissociated and purified rat OPCs; assay: Acute OL differentiation assay (MBP expression/cell, immunofluorescent image quantification); assay type: cell-based; conditions: sheet "All OLga data"; for activation at 2 µM / activation at 10 µM / activation at 0.08 µM / activation at 0.4 µM: Rattus norvegicus
Method in brief: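 This acute differentiation assay used purified rat OPCs from postnatal day 6–7 pups, seeded into PDL/laminin-coated 96-well plates in differentiation medium lacking PDGF and FGF. Compounds were applied in quadruplicate after a 1–2 h preincubation at 37 °C, 10 % CO2, with 0.1 % DMSO negative and 40 ng/ml T3 positive controls in eight wells. After fixation on DIV4, anti-MBP immunofluorescence images yielded MBP expression/cell.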

expanded OPCs = assay: cells; conditions: for viability at 0.1 µM / viability at 1 µM / viability at 10 µM: Rattus norvegicus, 72 h
Method in brief: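 Toxicity screen: compounds added at 0.1, 1 and 10 µM to PDGF-AA-expanded OPCs in 96-well plates, 3-day incubation at 37 °C, 10% CO2, then alamarBlue 1:10 for 4 h with fluorescence readout. Results set screening doses of 10/2, 2/0.4 or 0.4/0.08 µM.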

[2] = alamarBlue viability of expanded OPCs, compound at 0.1 µM, relative to DMSO control
[3] = alamarBlue viability of expanded OPCs, compound at 1 µM, relative to DMSO control
[4] = alamarBlue viability of expanded OPCs, compound at 10 µM, relative to DMSO control
[5] = test compound at 2 uM, NCC library screen, relative to quetiapine, read-out: 2 uM (% Quet)
[6] = test compound at 10 uM, NCC library screen, relative to quetiapine, read-out: 10 uM (% Quet)
[7] = 2 uM test compound, relative to quetiapine, read-out: OL differentiation, 2 uM (% Quet)
[8] = 10 uM test compound, relative to quetiapine, read-out: OL differentiation, 10 uM (% Quet)
[9] = read-out: 0.1 µM (% DMSO), alamarBlue viability of expanded OPCs, compound at 0.1 µM, sheet All Tox data
[10] = read-out: 1 µM (% DMSO), alamarBlue viability of expanded OPCs, compound at 1 µM, sheet All Tox data
[11] = read-out: 10 µM (% DMSO), alamarBlue viability of expanded OPCs, compound at 10 µM, sheet All Tox data
[12] = 0.08 uM test compound, relative to quetiapine, read-out: OL differentiation, 0.08 uM (% Quet)
[13] = 0.4 uM test compound, relative to quetiapine, read-out: OL differentiation, 0.4 uM (% Quet)
[14] = read-out: 0.1 µM (% DMSO), alamarBlue viability, NCC library compound at 0.1 µM, sheet "All Tox data"
[15] = read-out: 1 µM (% DMSO), alamarBlue viability, NCC library compound at 1 µM, sheet "All Tox data"
[16] = read-out: 10 µM (% DMSO), alamarBlue viability, NCC library compound at 10 µM, sheet "All Tox data"

SMILES	activation at 2 µM [1, 5]	activation at 10 µM [1, 6]	activation at 2 µM [1, 7]	activation at 10 µM [1, 8]	viability at 0.1 µM (expanded OPCs; [9])	viability at 1 µM (expanded OPCs; [10])	viability at 10 µM (expanded OPCs; [11])	viability at 0.1 µM (expanded OPCs; [14])	viability at 1 µM (expanded OPCs; [15])	viability at 10 µM (expanded OPCs; [16])	also measured
OC(CCN1CCCCC1)(c1ccccc1)C1CCCCC1 (centres unmarked) [Trihexyphenidyl]	–	–	–	–	–	–	–	–	–	–	activation at 2 µM ([1]; test compound at 2 uM, MBP expression relative to quetiapine, NCC library screen, read-out: 2 uM (% Quet)): -19.1%; activation at 10 µM ([1]; test compound at 10 uM, MBP expression relative to quetiapine, NCC library screen, read-out: 10 uM (% Quet)): -45.6%; 0.1 µM (% DMSO) (expanded OPCs; [2]): 90.6 % DMSO; 1 µM (% DMSO) (expanded OPCs; [3]): 84.6 % DMSO; 10 µM (% DMSO) (expanded OPCs; [4]): 67.7 % DMSO
N[C@@H](Cc1cc(I)c(Oc2ccc(O)c(I)c2)c(I)c1)C(=O)O [Triiodothyronine]	-36.3%	-37.8%	–	–	–	–	–	–	–	–	0.1 µM (% DMSO) (expanded OPCs; [2]): 237.5 % DMSO; 1 µM (% DMSO) (expanded OPCs; [3]): 217.6 % DMSO; 10 µM (% DMSO) (expanded OPCs; [4]): 207.1 % DMSO
CCC(COC(=O)c1cc(OC)c(OC)c(OC)c1)(c1ccccc1)N(C)C (centres unmarked) [Trimebutine]	–	–	31.4%	-25.8%	113%	135%	147%	–	–	–	–
COc1cc(Cc2cnc(N)nc2N)cc(OC)c1OC [Trimethoprim]	-30.5%	-40.8%	–	–	–	–	–	–	–	–	0.1 µM (% DMSO) (expanded OPCs; [2]): 93.8 % DMSO; 1 µM (% DMSO) (expanded OPCs; [3]): 89.7 % DMSO; 10 µM (% DMSO) (expanded OPCs; [4]): 86.5 % DMSO
CN(C)CCN(Cc1ccccc1)c1ccccn1 [Tripelennamine]	–	–	8.2%	31.1%	82.9%	86.1%	80.7%	–	–	–	–
CC(C)[C@]12O[C@H]1[C@@H]1O[C@]13[C@]1(O[C@H]1C[C@H]1C4=C(CC[C@@]13C)C(=O)OC4)[C@@H]2O [Triptolide]	–	–	–	–	73.9%	13.2%	13.7%	–	–	–	activation at 0.08 µM [1, 12]: 3.9%; activation at 0.4 µM [1, 13]: -23.3%
CN1[C@@H]2CC[C@H]1C[C@@H](OC(=O)c1c[nH]c3ccccc13)C2 [Tropisetron]	–	–	37.9%	16.9%	98.4%	90.9%	82.5%	–	–	–	–
COc1cc(C(=O)NC2CCCNC2)cc(OC)c1OC (centres unmarked) [Troxipide]	–	–	18%	-6.8%	102%	115%	109%	–	–	–	–
c1ccc2c3c([nH]c2c1)CNCC3 [Tryptoline]	-12.9%	-20.7%	–	–	–	–	–	103%	92.4%	62.6%	–
c1ccc2c(c1)CCCC2C1=NCCN1 (centres unmarked) [Tyzine]	-6%	0.3%	–	–	–	–	–	–	–	–	0.1 µM (% DMSO) (expanded OPCs; [2]): 181.2 % DMSO; 1 µM (% DMSO) (expanded OPCs; [3]): 186.3 % DMSO; 10 µM (% DMSO) (expanded OPCs; [4]): 187.5 % DMSO
CC(C)C[C@H](NC(=O)[C@@H](O)[C@H](N)Cc1ccccc1)C(=O)O [Ubenimex]	-3.1%	9.5%	–	–	–	–	–	112%	112%	123%	–
COc1ccccc1N1CCN(CCCNc2cc(=O)n(C)c(=O)n2C)CC1 [Urapidil]	–	–	24.2%	8.4%	84.5%	89.8%	96.2%	–	–	–	–
CC(C)[C@H](N)C(=O)OCCOCn1cnc2c(=O)[nH]c(N)nc21 [Valaciclovir]	–	–	-1.4%	-8.7%	91.4%	98%	102%	–	–	–	–
Cc1onc(-c2ccccc2)c1-c1ccc(S(N)(=O)=O)cc1 [Valdecoxib]	–	–	8.7%	-33.1%	109%	104%	105%	–	–	–	–
CCCC(CCC)C(=O)O [Valproic Acid]	-5.2%	-29.7%	–	–	–	–	–	97.5%	93.1%	104%	–
CCCCC(=O)N(Cc1ccc(-c2ccccc2-c2nnn[nH]2)cc1)[C@H](C(=O)O)C(C)C [Valsartan]	–	–	10.7%	-1%	–	–	–	86.6%	84%	82.9%	–
CC(=O)O[C@H]1C[C@@H]2CC[C@@H]3[C@H](CC[C@@]4(C)[C@H]3C[C@H]([N+]3(C)CCCCC3)[C@@H]4OC(C)=O)[C@@]2(C)C[C@@H]1N1CCCCC1 [Vecuronium Bromide]	13.2%	17.7%	–	–	–	–	–	86.3%	87.7%	78.4%	–
COc1ccc(C(CN(C)C)C2(O)CCCCC2)cc1 (centres unmarked) [Venlafaxine]	–	–	4%	-26%	89.1%	85.2%	76.7%	–	–	–	–
Nc1ncnc2c1ncn2[C@@H]1O[C@H](CO)[C@@H](O)[C@@H]1O [Vidarabine]	-12.9%	–	–	–	–	–	–	90.6%	84.9%	48.9%	activation at 0.4 µM ([1]; test compound at 0.4 uM, NCC library screen, relative to quetiapine, read-out: 0.4 uM (% Quet)): -2.3%
CC[C@]1(O)C[C@@H]2CN(CCc3c([nH]c4ccccc34)[C@@](C(=O)OC)(c3cc4c(cc3OC)N(C)[C@H]3[C@@](O)(C(N)=O)[C@H](O)[C@]5(CC)C=CCN6CC[C@]43[C@@H]65)C2)C1 [Vindesine]	–	–	–	–	–	–	–	–	11.4%	9.2%	activation at 0.08 µM ([1]; test compound at 0.08 uM, NCC library screen, relative to quetiapine, read-out: 0.08 uM (% Quet)): -193%
CCC1=C[C@@H]2CN(C1)Cc1c([nH]c3ccccc13)[C@@](C(=O)OC)(c1cc3c(cc1OC)N(C)[C@H]1[C@@](O)(C(=O)OC)[C@H](OC(C)=O)[C@]4(CC)C=CCN5CC[C@]31[C@@H]54)C2 [Vinorelbine]	–	–	–	–	–	–	–	56.8%	34.4%	11.1%	activation at 0.08 µM [1, 12]: -20.7%; activation at 0.4 µM [1, 13]: -107%
Cl.Cl.O=C(O)COCCN1CCN(C(c2ccccc2)c2ccc(Cl)cc2)CC1 (centres unmarked) [Virlix]	–	–	–	–	–	–	–	–	–	–	2 uM (% Quet) ([1]; test compound at 2 uM, MBP expression relative to quetiapine, NCC library screen): 3.4 % Quet; 10 uM (% Quet) ([1]; test compound at 10 uM, MBP expression relative to quetiapine, NCC library screen): -0.36 % Quet; 0.1 µM (% DMSO) (expanded OPCs): 98.3 % DMSO; 1 µM (% DMSO) (expanded OPCs): 92.7 % DMSO; 10 µM (% DMSO) (expanded OPCs): 81.0 % DMSO
C[C@@H](c1ncncc1F)[C@](O)(Cn1cncn1)c1ccc(F)cc1F [Voriconazole]	–	–	4.8%	10%	99.1%	97.4%	96%	–	–	–	–
